Test results from US4786755A, “Diphenic acid monoamides” (Warner-Lambert Company, priority 1986, dated 1988).

Biological target: T1, leukotriene receptor (Cavia porcellus, UniProt Q2NNR5)
T1 construct: 20 mg original tissue wet weight of guinea pig lung membranes; tissue Kuiper Rabbit Farm, Gary, IN (animals); host or cells: guinea pig lung, crude membranes
T1 sequence (Q2NNR5 1-340): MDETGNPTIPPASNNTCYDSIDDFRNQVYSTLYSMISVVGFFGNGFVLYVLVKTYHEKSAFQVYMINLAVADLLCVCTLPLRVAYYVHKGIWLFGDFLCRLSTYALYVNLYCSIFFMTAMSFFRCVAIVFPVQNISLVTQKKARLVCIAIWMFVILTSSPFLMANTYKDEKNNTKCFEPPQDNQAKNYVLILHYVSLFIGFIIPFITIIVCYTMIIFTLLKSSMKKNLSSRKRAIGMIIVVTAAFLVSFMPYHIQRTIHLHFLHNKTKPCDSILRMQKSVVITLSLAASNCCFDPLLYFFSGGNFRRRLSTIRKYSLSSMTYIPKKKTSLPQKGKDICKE
Test: Binding of ^3 H-Leukotriene D4 to Guinea Pig Lung Membranes (RBL)
Conditions: ^3 H-LTD4, guinea pig lung membranes; read-out: IC50 RBL1
Protocol: Additionally, the activity, of the compounds having the Formula I of the present invention is determined by the well known leukotriene receptor binding assay that is described by R. F. Bruns, W. J. Thomsen and T. A. Pugsley in Life Sciences, 33, 645 (1983) or the Herxheimer in vivo antiallergy test described in H. Herxheimer, J. Physiol. (London), Vol. 177, p. 251 (1952).
Binding of ^3 H-Leukotriene D4 to Guinea Pig Lung Membranes (RBL)
[14,15-^3 H]leukotriene D4 (^3 H-LTD4) (25 Ci/mmol and 40 Ci/mmol) is purchased from New England Nuclear. Unlabeled LTC4 is a gift of Ono Pharmaceuticals (Japan). LTC4, LTD4, and LTE4 are purchased as methyl esters from Paesel GmbH (Frankfurt, W. Germany). Concentrations of the Paesel leukotrienes are calculated from their absorbance at 280 nm. Leukotriene esters are saponified overnight under N2 in 3.3% potassium carbonate at room temperature. Tritiated leukotrienes are stored as received from New England Nuclear at -20° C. Ono LTC4 (5 μg/ml is stored at -60° C. in phosphate buffer pH 6.8. Saponified Paesel leukotrienes are stored at -60° C. in 3.3% potassium carbonate (pH 9.0-9.5). Aliquots of leukotrienes are taken from stock solutions immediately after thawing, after which the stock solutions are immediately refrozen. 2-Amino-2-(hydroxymethyl)-1,3-propanediol (Tris) is Sigma pH 7.7 pre-set crystals, and dimethylsulfoxide is Aldrich Gold Label.
Preparation of crude lung membranes
Two pairs of lungs (1.3 g) from freshly sacrificed 300 g male guinea pigs (older animals gave substantially lower binding) from Kuiper Rabbit Farm, Gary, IN are disrupted with a Polytron PT 10 (setting 4) for 30 seconds in 20 ml ice-cold 50 mM Tris adjusted with HCl to pH 7.7 at 25° C. (Tris buffer), filtered through a single layer of gauze to remove connective tissue, and centrifuged at 50,000 xg for ten min. The pellet is resuspended by homogenization with a Polytron in 20 ml Tris buffer, centrifuged at 50,000 xg for ten min., resuspended, incubated at 37° C. for 30 minutes, and centrifuged again. The final pellet is resuspended in Tris buffer and either used fresh or stored at -70° C.
All incubations are in triplicate for 60 minutes at 25° C. in 12×75 mm polystyrene tubes containing 1 ml Tris buffer with 20 mg original tissue wet weight of guinea pig lung membranes, 0.2 nM ^3 H-LTD4 (6,000-11,000 cpm), 10 mM MgCl2, and 1% dimethylsulfoxide. Leukotrienes are diluted in Tris buffer. All other test compounds are dissolved at 10 mM in dimethylsulfoxide on the same day as the experiment, and diluted in dimethylsulfoxide to 100× the final incubation concentration. Control incubations receive an equal volume (10 μl) of dimethylsulfoxide; the resulting concentration of dimethylsulfoxide had no effect on binding. ^3 H-LTD4 is diluted to 2 nM in Tris buffer. The membrane suspension (20 mg/0.89 ml) contains sufficient MgCl2 to give 10 mM final concentration in the incubation. […] All additions are performed at 0° C. Immediately after the last addition, the incubation is initiated by agitating the rack of tubes on a vortex mixer and warming to 25° C. in a water bath. Tubes are vortexed at least once more during the incubation to ensure that the membranes remained suspended. Incubations are terminated after 60 minutes by filtering under reduced pressure through 25 mm Whatman GF/B filters followed by rapid washing three times with 4 ml of ice-cold Tris buffer. Filters are added to scintillation vials with 8 ml Formula 947 (New England Nuclear), left overnight, shaken, and the radioactivity counted in a scintillation counter (efficiency 40%). Nonspecific binding, defined as binding of ^3 H-LTD4 in the presence of 100 nM LTC4, is 300-500 cpm for all lots of ^3 H-LTD4. Binding to the filters in the absence of tissue is about 100 cpm, and is not affected by unlabeled LTC4. Specific binding, defined as total binding minus nonspecific binding, varied considerably from lot to lot of ^3 H-LTD4. […]

Row | Compound | IC50
1 | O=C(O)c1ccccc1-c1ccccc1C(=O)Nc1ccc(CCc2ccc(Cl)c(Cl)c2)cc1 [Example 3, [1,1'-Biphenyl]-2-carboxylic acid, 2'-[[[4-[2-(3,4-dichlorophenyl)ethyl]phenyl]amino]carbonyl]-] | 4.8 µM
2 | O=C(O)c1ccccc1-c1ccccc1C(=O)Nc1cccc(CCc2ccc(Cl)c(Cl)c2)c1 [Example 4, [1,1'-Biphenyl]-2-carboxylic acid, 2'-[[[3-[2-(3,4-dichlorophenyl)ethyl]phenyl]amino]carbonyl]-] | 8.5 µM
3 | CN(C(=O)c1ccccc1-c1ccccc1C(=O)O)c1ccc(CCc2ccc(Cl)c(Cl)c2)cc1 [Example 5, [1,1'-Biphenyl]-2-carboxylic acid, 2'-[[[4-[2-(3,4-dichlorophenyl)ethyl]phenyl]methylamino]carbonyl]-] | 14.5 µM
4 | COc1ccc(CCc2ccc(NC(=O)c3ccccc3-c3ccccc3C(=O)O)cc2)cc1OC [Example 7, [1,1'-Biphenyl]-2-carboxylic acid, 2'-[[[4-[2-(3,4-dimethoxyphenyl)ethyl]phenyl]amino]carbonyl]-] | 88.7 µM
5 | CN(C(=O)c1ccccc1-c1ccccc1C(=O)O)c1ccc(CCc2ccc(Cl)cc2)cc1 [Example 8] | 28.7 µM
6 | O=C(O)c1ccccc1-c1ccccc1C(=O)Nc1ccc(Cc2ccc(Cl)c(Cl)c2)cc1 [Example 9] | 6.5 µM
7 | O=C(O)c1ccccc1-c1ccccc1C(=O)Nc1ccc(CCc2ccc(Cl)cc2)cc1 [Example 11, [1,1'-Biphenyl]-2-carboxylic acid, 2'-[[4-[2-[(4-chlorophenyl)ethyl]phenyl]amino]carbonyl]-] | 13.5 µM
8 | O=C(O)c1ccccc1-c1ccccc1C(=O)Nc1ccc(CCCCc2ccccc2)cc1 [Example 19, [1,1'-Biphenyl]-2-carboxylic acid, 2'-[[[4-(4-phenylbutyl)phenyl]amino]carbonyl]-] | 6.7 µM

Now those with a lower IC50, led by results:

Row | IC50 | Compound
9 | 1 µM | O=C(O)c1ccccc1-c1ccccc1C(=O)Nc1ccc(CCCc2ccc(Cl)c(Cl)c2)cc1 [Example 1, [1,1'-Biphenyl]-2-carboxylic acid, 2'-[[[4-[3-(3,4-dichlorophenyl)propyl]phenyl]amino]carbonyl]-]
10 | 4.6 µM | O=C(O)c1ccccc1-c1ccccc1C(=O)Nc1ccc(OCCCc2ccccc2)cc1 [Example 2]
11 | 4.2 µM | O=C(O)c1ccccc1-c1ccccc1C(=O)Nc1ccc(CCCCc2ccc(Cl)c(Cl)c2)cc1 [Example 15, [1,1'-Biphenyl]-2-carboxylic acid, 2'-[[[4-[4-(3,4-dichlorophenyl)butyl]phenyl]amino]carbonyl]-]
12 | 4.3 µM | O=C(O)c1ccccc1-c1ccccc1C(=O)Nc1ccc(CCCc2ccccc2)cc1 [Example 16, [1,1'-Biphenyl]-2-carboxylic acid, 2'-[[[4-(3-phenylpropyl]phenyl]amino]carbonyl]-]
13 | 2.3 µM | O=C(O)c1ccccc1-c1ccccc1C(=O)Nc1ccc(CCCCCc2ccccc2)cc1 [Example 21, [1,1'-Biphenyl]-2-carboxylic acid, 2'-[[[4-(5-phenylpentyl)phenyl]amino]carbonyl]-]
